The text below walks through data of patent publication US8436183B2, “Synthetic multimerizing agents” (ARIAD Pharmaceuticals, Inc., priority 1994, dated 2013).

Where a name gives a salt, the structure may show the parent alone. Read-outs that look alike come from different tables or passages of the source. Bounds are passed on as bounds.

Assay [1] addresses T1, FKBP F36I (Homo sapiens, UniProt P62942, F37I).
T1 construct: made in house
Description: Competitive Binding FP Assay, F36I mutant FKBP.
Description: (§1) Affinities of bumped synthetic ligands for FKBP were determined using a competitive assay based on fluorescence polarization (FP). […] The assay yields IC50 values that are related to the affinity of the competitive ligand for the protein.
(§2) For competition FP assays, the appropriate protein concentration (giving ˜90% binding of probe) was first determined by direct binding of probe to protein (see eg. Beacon FP System Applications Guide, Panvera Corp, Madison, Wis.). All binding assay procedures were performed at room temperature. Serial dilutions of each protein were prepared in 50 mM potassium phosphate pH 7.8/150 mM NaCl/100 μg/ml bovine gamma globulin (“FP buffer”: prepared using only low-fluorescence reagents from Panvera), and 100 μl volumes transferred to wells of a Dynatech micro-fluor black 96-well fluorescence plate. 100 μl of 10 nM 4 in FP buffer plus 2% ethanol (prepared from an ethanol stock of the probe) was then added to each well with mixing. Duplicate control wells contained FP buffer instead of FKBP (for 0% probe binding) or 10 μM wild-type FKBP (for 100% binding).
(§3) The plates were stored covered in the dark for approximately 30 min to permit equilibration and then the fluorescence polarization of the sample in each well was read on a Jolley FPM-2 FP plate reader (Jolley Consulting and Research, Inc., Grayslake, Ill.) in accordance with the manufacturer's recommendations. Polarization (mP units) for each protein concentration was plotted (y axis) vs. final concentration of FKBP (x axis). Concentrations were determined by OD280 measurements. Arbitrary units were used for non-quantitated proteins. Non-linear least square analysis was used to fit the curve and extract the Kd of the protein for the probe (in cases where the protein concentration was known) using the following four-parameter equation: y=M3+(((x+M1+M2)−SQRT(((x+M1+M2)^2)−(4*x*M1)))/(2*(M1)))*(M4−M3) where M1 is the probe concentration, M2 the Kd, and M3 and M4 the minimum and maximum mP values respectively.
(§4) Serial 10-fold dilutions of each synthetic ligand were prepared in 100% ethanol in glass vials and stored on ice. All other manipulations were performed at room temperature. […] 2.0 μl samples of the synthetic ligands were then transferred in duplicate to the wells with mixing. Finally, a probe solution was prepared containing 10 nM 4 in 0.1% ethanol/FP buffer, and 100 μl added to each well with mixing. Duplicate control wells contained ethanol instead of FKBP ligand (for 100% probe binding) or ethanol instead of FKBP ligand and FP buffer instead of FKBP (0% binding).
(§5) The plates were stored covered in the dark for approximately 30 min to permit equilibration and then the fluorescence polarization of the sample in each well read on a Jolley FPM-2 FP plate reader (Jolley Consulting and Research, Inc., Grayslake, Ill.) in accordance with the manufacturer's recommendations. The mean polarization (mP units) for each competitor concentration, in some cases converted to % total binding by reference to the control values, was plotted (y axis) vs. log molar final concentration of competitor (x axis). Non-linear least square analysis was used to fit the curve and extract the IC50 using the following equation: y=M1+(M4−M1)/(1+exp(M2*(M3−x))) where M3 is the IC50. For incomplete curves the IC50 was determined by interpolation.

The target of assay [2] is T2, FKBP F36M (Homo sapiens, UniProt P62942, F37M).
T2 construct: made in house
In words: Competitive Binding FP Assay, F36M mutant FKBP.
Description: as §1, §2, §3, §4, §5

The target of assay [3] is T3, FKBP F36A (Homo sapiens, UniProt P62942, F37A).
T3 construct: made in house
In words: Competitive Binding FP Assay, F36A mutant FKBP.
Description: as §1, §2, §3, §4, §5

Assay [4] addresses T4, wild-type human FKBP12 (Homo sapiens, UniProt P62942).
Description: as §1, §2, §3
(§6) Serial 10-fold dilutions of each synthetic ligand were prepared in 100% ethanol in glass vials and stored on ice. All other manipulations were performed at room temperature. […] Finally, a probe solution was prepared containing 10 nM 4 in 0.1% ethanol/FP buffer, and 100 μl added to each well with mixing. […]
(§7) The plates were stored covered in the dark for approximately 30 min to permit equilibration and then the fluorescence polarization of the sample in each well read on a Jolley FPM-2 FP plate reader (Jolley Consulting and Research, Inc., Grayslake, Ill.) in accordance with the manufacturer's recommendations. […] For incomplete curves the IC50 was determined by interpolation.
Assay [5] deals with T5, FAS-FKBP fusion (36V FKBP) in HT1080 cells (Homo sapiens, UniProt P62942, F37V).
T5 construct: fused on or other part: Fas intracellular effector domain (gives the death read-out)
In words: Apoptosis Assay: Fas killing (36V, stable). Type of assay: cell-based. Conditions: mean values.
Description: In this case, one uses cells which constitutively express a detectable product. The cells also contain and are capable of expressing DNAs encoding chimeric proteins comprising one or more immunophilin-derived ligand binding domains and one or more effector domains, such as the intracellular domain of FAS, capable, upon multimerization, of triggering cell death. […] The cells are maintained or cultured in a culture medium permitting cell growth or continued viability. The cells or medium are assayed for the presence of the constitutive cellular product, and a base-line level of reporter is thus established. One may use cells engineered for constitutive production of hGH or any other conveniently detectable product to serve as the reporter. […]
The ability of a dimerizer to activate the Fas signal transduction pathway and trigger cell death in cells engineered to express a FAS-FKBP fusion can be tested in cells appropriately transduced by retroviral vectors to express the desired fusion protein. […] The next day, medium is removed and replaced with medium containing 10% Alamar Blue viability indicator, which changes absorbance properties as a function of reducing agent released into the medium by cell metabolism. Alternatively, cells are counted. Optical density at the appropriate wavelength is measured using a platereader spectroscope.

The target in assay [6] is T4, wild-type human FKBP12. In words: Competitive Binding FP Assay, wild-type FKBP. Particulars: for wild-type, % @ 100000: Synthetic Monomers table, @ 100000 nM competitor.
Description: as §1, §2, §3, §6, §7
Assay [7] deals with FKBP F36V (Homo sapiens, UniProt P62942, F37V). Description: Competitive Binding FP Assay, F36V mutant FKBP.
Description: as §1
(§8) For competition FP assays, the appropriate protein concentration (giving ˜90% binding of probe) was first determined by direct binding of probe to protein (see eg. Beacon FP System Applications Guide, Panvera Corp, Madison, Wis.). All binding assay procedures were performed at room temperature. Serial dilutions of each protein were prepared in 50 mM potassium phosphate pH 7.8/150 mM NaCl/100 μg/ml bovine gamma globulin (“FP buffer”: prepared using only low-fluorescence reagents from Panvera), and 100 μl volumes transferred to wells of a Dynatech micro-fluor black 96-well fluorescence plate. 100 μl of 10 nM 4 in FP buffer plus 2% ethanol (prepared from an ethanol stock of the probe) was then added to each well with mixing. […]
(§9) The plates were stored covered in the dark for approximately 30 min to permit equilibration and then the fluorescence polarization of the sample in each well was read on a Jolley FPM-2 FP plate reader (Jolley Consulting and Research, Inc., Grayslake, Ill.) in accordance with the manufacturer's recommendations. […] Concentrations were determined by OD280 measurements. Arbitrary units were used for non-quantitated proteins. […]
For assay [8], the target named is FKBP F36L (Homo sapiens, UniProt P62942, F37L). Description: Competitive Binding FP Assay, F36L mutant FKBP.
Description: as §1, §2
The plates were stored covered in the dark for approximately 30 min to permit equilibration and then the fluorescence polarization of the sample in each well was read on a Jolley FPM-2 FP plate reader (Jolley Consulting and Research, Inc., Grayslake, Ill.) in accordance with the manufacturer's recommendations. Polarization (mP units) for each protein concentration was plotted (y axis) vs. final concentration of FKBP (x axis). Concentrations were determined by OD280 measurements. Arbitrary units were used for non-quantitated proteins. […]
as §7
Assay [9] deals with T6, FKBP F36S (Homo sapiens, UniProt P62942, F37S).
T6 construct: made in house
Description: Competitive Binding FP Assay, F36S mutant FKBP. Particulars: Synthetic Monomers table; normalized to FK506 run in the same experiment.
Description: as §1, §8, §9

Setting [10] is: Synthetic Monomers table, normalized to FK506 run in the same experiment.

T2 sequence (P62942 whole entry F37M): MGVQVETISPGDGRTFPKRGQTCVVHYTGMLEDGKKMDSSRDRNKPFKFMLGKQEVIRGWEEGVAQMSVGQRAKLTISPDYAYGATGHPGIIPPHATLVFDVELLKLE
Sequence of FKBP F36L (P62942 whole entry F37L): as the sequence (P62942 whole entry F37M) above, with M37L counted along it
T3 sequence (P62942 whole entry F37A): as the sequence (P62942 whole entry F37M) above, with M37A counted along it
T4 sequence (P62942 whole entry, the tested form may be a part): as the sequence (P62942 whole entry F37M) above, with M37F counted along it
T1 sequence (P62942 whole entry F37I): as the sequence (P62942 whole entry F37M) above, with M37I counted along it
Sequence of FKBP F36V (P62942 whole entry F37V): as the sequence (P62942 whole entry F37M) above, with M37V counted along it
T5 sequence (P62942 2-108 F37V limits assumed): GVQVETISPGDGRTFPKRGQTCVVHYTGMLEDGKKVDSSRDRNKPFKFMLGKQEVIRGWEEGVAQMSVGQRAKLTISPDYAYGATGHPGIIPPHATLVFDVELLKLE
T6 sequence (P62942 whole entry F37S): as the sequence (P62942 whole entry F37M) above, with M37S counted along it

What is called IC50 is the concentration that inhibits the measured activity by half. As to `CC[C@H](C(=O)N1CCCC[C@H]1C(=O)O[C@H](CCc1cccnc1)c1cccc(OCC(=O)O)c1)c1cc(OC)c(OC)c(OC)c1` [AP14252, hydrochloride], the IC50 in assay [1] came to 6.7 nM; in assay [2], 54 nM; in assay [3] it was 63 nM.
As for `CCC(C(=O)N1CCCC[C@H]1C(=O)O[C@H](CCc1ccc(OC)c(OC)c1)c1cccc(OCC(=O)O)c1)c1ccc2c(c1)OCO2` (stereo partly drawn) [AP1839], the IC50 in [4] is > 16900 nM.
For the molecule `COc1ccc(CCC(OC(=O)C2CCCCN2C(=O)C(Cc2ccccc2)c2ccccc2)c2cccc(OCC(=O)O)c2)cc1OC` (mixture of isomers) [AP1831], the results for the IC50 in assay [1] (setting [10]), in assay [2] (setting [10]) and in assay [3] (setting [10]) were 124 nM, 169 nM and 447 nM, respectively.
For orientation: EC50 means the concentration giving half of the maximal effect. Higher therefore signals a less potent agent. Take AP20187: the EC50 in assay [5] is < 1 nM.
Regarding `CC[C@H](C(=O)N1CCCC[C@H]1C(=O)O[C@H](CCc1ccc(OC)c(OC)c1)c1cccc(OCC(=O)O)c1)c1cc(OC)c(OC)c(OC)c1` [AP1867], the IC50 was 5.1 nM in assay [1]; 10 nM in assay [2]; 18 nM in [3]; 2930 nM in [6]; 1.8 nM in [7]; 6.2 nM in [8].
With `CCC(C)(C)C(=O)C(=O)N1CCCC[C@H]1C(=O)O[C@H](CCc1ccc(OC)c(OC)c1)c1cccc(OCC(=O)O)c1` [AP1497], the values for the IC50 in assay [1] (setting [10]), in assay [3] (setting [10]) and in [9] were 43 nM, 174 nM and 1820 nM, respectively.
Consider `CC[C@H](C(=O)N1CCCC[C@H]1C(=O)O[C@H](CCN1CCOCC1)c1cccc(OCC(=O)O)c1)c1cc(OC)c(OC)c(OC)c1` [AP14246, (1R)-1-(3-(carboxymethoxy)phenyl)-3-(morpholino)-1-propyl (2S)-1-((2S)-(3,4,5-trimethoxyphenyl)butyryl)-2-piperidine carboxylate], for which the IC50 in assay [1] was determined as 32 nM; in assay [2], 52 nM; in assay [3] it was 77 nM; in assay [7], 16.5 nM; in assay [8] it was 68 nM. Moreover, the “wild-type, % @ 100000” value in assay [6] amounted to 75% @ 100000.
In the case of `COc1ccc(CCC(OC(=O)C2CCCCN2C(=O)C(c2ccccc2)C2CCCC2)c2cccc(OCC(=O)O)c2)cc1OC` (mixture of isomers) [AP1778], the IC50 is 41 nM in [1] (setting [10]) and 75 nM in assay [3] (setting [10]).
`COc1ccc(CC[C@@H](OC(=O)[C@@H]2CCCCN2C(=O)C(c2ccccc2)c2ccccc2)c2cccc(OCC(=O)O)c2)cc1OC` [AP14245]: the “wild-type, % @ 100000” value in [6] is 73% @ 100000.
For `COc1ccc(CC[C@@H](OC(=O)[C@@H]2CCCCN2C(=O)Cc2ccccc2)c2cccc(OCC(=O)O)c2)cc1OC` [AP1780], the IC50 in assay [8] (read-out: F36L IC50, Synthetic Monomers table, normalized to FK506 run in the same experiment) was 3560 nM.
Regarding `COc1ccc(CCC(OC(=O)C2CCCCN2C(=O)C(c2ccccc2)C(C)C)c2cccc(OCC(=O)O)c2)cc1OC` (mixture of isomers) [AP1781], the IC50 is 36 nM in [1] (setting [10]), 55 nM in [2] (setting [10]) and 109 nM in assay [3] (setting [10]).
